Experimental data as given in US11464770B2, “Anticancer pharmaceutical composition” (NATIONAL CANCER CENTER, priority 2016, dated 2022).
Read-outs that look alike come from different tables or passages of the source.

Assays:
[1] = tested on: lung cancer cell lines (e.g. NCI-H23, NCI-H1229); test: Cell based assay, cell viability (CellTiter-Glo), lung cancer cell lines; conditions: Homo sapiens
Method: (§1) Commercially available bladder cancer, prostate cancer, lung cancer, breast cancer, blood cancer, pancreatic cancer, colorectal cancer, brain cancer, neuroblastoma, melanoma, liver cancer, cervical carcinoma, ovarian cancer, renal cancer, and papilloma cell lines were each treated with trypsin-EDTA and cultured, followed by being seeded in each well of a 96 well plate. After 24 hours of treatment at constant temperature, the respective cells were treated with the candidate compound so that a final concentration became 0 to 2 μM. The treated cells were additionally cultured for 72 hours, and cell viability was measured by using an ATP detection method (CellTiter-Glo® Luminescent Cell Viability Assay, Promega).

[2] = tested on: brain cancer cell lines; test: Cell based assay, cell viability (CellTiter-Glo), brain cancer cell lines; conditions: Homo sapiens
Method: as §1, with “After 24 hours of treatment at constant temperature, the respective cells were treated with the candidate compound so that a final concentration became 0 to 2 μM.” left out

[3] = tested on: cervical carcinoma cell lines; test: Cell based assay, cell viability (CellTiter-Glo), cervical carcinoma cell lines; conditions: Homo sapiens; HeLa cells
Method: as §1, with “After 24 hours of treatment at constant temperature, the respective cells were treated with the candidate compound so that a final concentration became 0 to 2 μM.” left out

[4] = A549 cells, 72 hours treatment, CellTiter-Glo, read-out: IC50, lung cancer cell line A549
[5] = DMS 114 cells, 72 hours treatment, CellTiter-Glo, read-out: IC50, lung cancer cell line DMS 114
[6] = MRC-5 cells, 72 hours treatment, CellTiter-Glo, read-out: IC50
[7] = NCI-H23 cells, 72 hours treatment, CellTiter-Glo, read-out: IC50, lung cancer cell line NCI-H23
[8] = NCI-H460 cells, 72 hours treatment, CellTiter-Glo, read-out: IC50, lung cancer cell line NCI-H460
[9] = NCI-H522 cells, 72 hours treatment, CellTiter-Glo, read-out: IC50, lung cancer cell line NCI-H522
[10] = NCI-H1299 cells, 72 hours treatment, CellTiter-Glo, read-out: IC50, lung cancer cell line NCI-H1299
[11] = NCI-H1437 cells, 72 hours treatment, CellTiter-Glo, read-out: IC50, lung cancer cell line NCI-H1437
[12] = U138-MG, U-138 MG cell line, read-out: IC50, Brain cancer cell line U-138 MG
[13] = T98G cell line, read-out: IC50, Brain cancer cell line T98G
[14] = U-251 MG cell line, read-out: IC50, Brain cancer cell line U-251 MG
[15] = Lung cancer cell line A549, 72 hours, cell viability (CellTiter-Glo), read-out: IC50, A549
[16] = Lung cancer cell line DMS 114, 72 hours, cell viability (CellTiter-Glo), read-out: IC50, DMS 114
[17] = Lung cancer cell line NCI-H23, 72 hours, cell viability (CellTiter-Glo), read-out: IC50, NCI-H23
[18] = Lung cancer cell line NCI-H460, 72 hours, cell viability (CellTiter-Glo), read-out: IC50, NCI-H460
[19] = Lung cancer cell line NCI-H522, 72 hours, cell viability (CellTiter-Glo), read-out: IC50, NCI-H522
[20] = Lung cancer cell line NCI-H1299, 72 hours, cell viability (CellTiter-Glo), read-out: IC50, NCI-H1299
[21] = Lung cancer cell line NCI-H1437, 72 hours, cell viability (CellTiter-Glo), read-out: IC50, NCI-H1437
[22] = MRC-5 (listed under Lung cancer cell line), 72 hours, cell viability (CellTiter-Glo), read-out: IC50, MRC-5

Structure (SMILES) | IC50 [1, 4] [µM] | IC50 [1, 5] [µM] | IC50 [1, 6] [µM] | IC50 [1, 7] [µM] | IC50 [1, 8] [µM] | IC50 [1, 9] [µM] | IC50 [1, 10] [µM] | IC50 [1, 11] [µM] | IC50 [2, 12] [µM] | IC50 [2, 13] [µM] | IC50 [2, 14] [µM] | IC50 [3] [µM] | IC50 [1, 15] [µM] | IC50 [1, 16] [µM] | IC50 [1, 17] [µM] | IC50 [1, 18] [µM] | IC50 [1, 19] [µM] | IC50 [1, 20] [µM] | IC50 [1, 21] [µM] | IC50 [1, 22] [µM]
CC(=O)c1c([S+](C)[O-])[nH]c2c(Cl)ccc(Cl)c2c1=O (stereo not drawn) [Compound 6, 3-acetyl-5,8-dichloro-2-(methylsulfinyl)quinolin-4(1H)-one] | > 2 | > 2 | > 2 | 1.31 | > 2 | > 2 | 1.84 | > 10 | > 2 | > 10 | > 2 | > 10 | – | – | – | – | – | – | – | –
CC(=O)c1c(Sc2ccc(Br)cc2)[nH]c2c(Br)ccc(Cl)c2c1=O [Compound 16, 3-acetyl-8-bromo-2-((4-bromophenyl)thio)-5-chloroquinolin-4(1H)-one] | > 2 | > 2 | > 2 | > 2 | > 2 | > 2 | > 2 | > 10 | > 10 | > 10 | > 2 | > 10 | – | – | – | – | – | – | – | –
CSc1[nH]c2ccc(F)cc2c(=O)c1C(C)=O [Compound 8, 1-(6-fluoro-4-hydroxy-2-(methylthio)quinolin-3-yl)ethan-1-one] | > 2 | > 2 | > 2 | > 2 | > 2 | > 2 | > 2 | > 10 | > 10 | > 10 | > 2 | > 10 | – | – | – | – | – | – | – | –
CC(=O)c1c(SCc2ccc(Cl)cc2)[nH]c2c(Br)ccc(Cl)c2c1=O [Compound 10, 3-acetyl-8-bromo-5-chloro-2-((4-chlorobenzyl)thio)quinolin-4(1H)-one] | > 2 | > 2 | > 2 | > 2 | > 2 | > 2 | > 2 | > 10 | > 10 | > 10 | > 2 | > 10 | – | – | – | – | – | – | – | –
Cc1cc(C[S+]([O-])c2[nH]c3c(Cl)ccc(Cl)c3c(=O)c2C(=O)c2ccccc2)no1 (stereo not drawn) [Compound 88, 3-benzoyl-5,8-dichloro-2-(((5-methylisoxazol-3-yl)methyl)sulfinyl)quinolin-4(1H)-one] | > 2 | > 2 | > 2 | > 2 | > 2 | > 2 | > 2 | > 10 | > 10 | > 10 | > 2 | > 10 | – | – | – | – | – | – | – | –
CC(=O)c1c([S+]([O-])Cc2ccc(C(=O)c3ccccc3)cc2)[nH]c2c(Br)ccc(Cl)c2c1=O (stereo not drawn) [Compound 63, 3-acetyl-2-((4-benzoylbenzyl)sulfinyl)-8-bromo-5-chloroquinolin-4(1H)-one] | > 2 | > 2 | > 2 | 1.7 | > 2 | > 2 | > 2 | > 10 | > 2 | > 10 | > 2 | > 10 | – | – | – | – | – | – | – | –
CC(=O)c1c([S+]([O-])Cc2ccc(N)nc2)[nH]c2c(Br)ccc(Cl)c2c1=O (stereo not drawn) [Compound 100, 3-acetyl-2-(((6-aminopyridin-3-yl)methyl)sulfinyl)-8-bromo-5-chloroquinolin-4(1H)-one] | – | – | – | – | – | – | – | – | > 10 | > 10 | > 2 | > 2 | > 2 | > 2 | > 2 | > 2 | > 2 | > 2 | > 10 | > 2
CC(=O)c1c([S+]([O-])Cc2ccc(NS(C)(=O)=O)cc2)[nH]c2c(Br)ccc(Cl)c2c1=O (stereo not drawn) [Compound 103, N-(4-(((3-acetyl-8-bromo-5-chloro-4-oxo-1,4-dihydroquinolin-2-yl)sulfinyl)methyl)phenyl)methane-sulfonamide] | – | – | – | – | – | – | – | – | > 2 | > 10 | > 2 | > 2 | > 2 | > 2 | > 2 | > 2 | > 2 | > 2 | > 10 | > 2
COCCNc1ccc(C[S+]([O-])c2[nH]c3c(Br)ccc(Cl)c3c(=O)c2C(C)=O)cn1 (stereo not drawn) [Compound 105, 3-acetyl-8-bromo-5-chloro-2-(((6-((2-methoxyethyl)amino)pyridin-3-yl)methyl)sulfinyl)quinolin-4(1H)-one] | – | – | – | – | – | – | – | – | > 10 | > 10 | > 2 | > 2 | > 2 | > 2 | > 2 | > 2 | > 2 | > 2 | > 10 | > 2
